Among the data in the supplement of paper PMC10307832 are relative viability values, retold here.

Experiment in all cases: relative viability (nuclei count vs DMSO), 5 days (fraction); higher = more cells survive
Compound in the test “IU1-47 + Bortezomib”: CC1=CC(=C(N1C2=CC=C(C=C2)Cl)C)C(=O)CN3CCCCC3 [IU1-47] + CC(C)C[C@H](NC(=O)[C@H](Cc1ccccc1)NC(=O)c1cnccn1)B(O)O [Bortezomib] (partner 0.002 µM)
The gist of the method:
(§1)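 Lung cancer cell lines were seeded in 1536-well plates and dosed by pin tool the next day, with either a single drug or a fixed anchor-drug dose combined with five library-drug doses (not always all listed) spaced in √10 steps. Five days later, one step fixed the cells and stained their nuclei (final 0.05% Triton X-100, 1% formaldehyde, 1 ug/ml Hoechst), and nuclei were counted on 4× images. Relative viability is the nuclei count in treated wells divided by the count in vehicle wells, and each value is the median of duplicate plates.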

Compound in the test “IU1-47 + Crizotinib”: CC1=CC(=C(N1C2=CC=C(C=C2)Cl)C)C(=O)CN3CCCCC3 [IU1-47] + C[C@@H](Oc1cc(-c2cnn(C3CCNCC3)c2)cnc1N)c1c(Cl)ccc(F)c1Cl [Crizotinib] (partner 1 µM)
The gist of the method:
as §1

Compound in the test “FG-4592 + Bortezomib”: Cc1nc(C(=O)NCC(=O)O)c(O)c2ccc(Oc3ccccc3)cc12 [FG-4592] + CC(C)C[C@H](NC(=O)[C@H](Cc1ccccc1)NC(=O)c1cnccn1)B(O)O [Bortezomib] (partner 0.002 µM)
The gist of the method: as §1

Compound in the test “FG-4592 + AZD7762”: Cc1nc(C(=O)NCC(=O)O)c(O)c2ccc(Oc3ccccc3)cc12 [FG-4592] + NC(=O)Nc1cc(-c2cccc(F)c2)sc1C(=O)N[C@H]1CCCNC1 [AZD7762] (partner 0.2 µM)
Put shortly: as §1

For the cell line NCI-H838, the relative viability worked out at 0.869 with IU1-47 + Bortezomib (first compound 0.08 µM); 0.952 with IU1-47 + Bortezomib (first compound 0.253 µM); 0.904 in the test with IU1-47 + Bortezomib (first compound 0.8 µM); 0.624 with IU1-47 + Bortezomib (first compound 2.53 µM); 0.564 with IU1-47 + Bortezomib (first compound 8 µM); 0.858 with IU1-47 + Crizotinib (first compound 0.08 µM). In addition, the relative viability came out at 0.895 with IU1-47 + Crizotinib (first compound 0.253 µM); 0.844 with IU1-47 + Crizotinib (first compound 0.8 µM); 1.03 with IU1-47 + Crizotinib (first compound 2.53 µM); 0.669 with IU1-47 + Crizotinib (first compound 8 µM); 0.893 with FG-4592 + Bortezomib (first compound 0.08 µM); 0.923 in the test with FG-4592 + Bortezomib (first compound 0.253 µM). Moreover, the relative viability in the test with FG-4592 + Bortezomib (first compound 0.8 µM) was determined as 0.697; in the test with FG-4592 + Bortezomib (first compound 2.53 µM), 0.663; with FG-4592 + Bortezomib (first compound 8 µM), 0.747; in the test with FG-4592 + AZD7762 (first compound 0.08 µM), 0.899; with FG-4592 + AZD7762 (first compound 0.253 µM) it was 0.888; with FG-4592 + AZD7762 (first compound 0.8 µM) it was 0.976. In addition, the relative viability was 0.981 with FG-4592 + AZD7762 (first compound 2.53 µM) and 0.916 with FG-4592 + AZD7762 (first compound 8 µM).

Turning to CAL-12T, the relative viability with IU1-47 + Bortezomib (first compound 0.08 µM) is 1.05; in the test with IU1-47 + Bortezomib (first compound 0.253 µM) it was 0.946; with IU1-47 + Bortezomib (first compound 0.8 µM), 0.945; in the test with IU1-47 + Bortezomib (first compound 2.53 µM), 0.972; with IU1-47 + Bortezomib (first compound 8 µM), 0.802; in the test with IU1-47 + Crizotinib (first compound 0.08 µM), 0.689. In addition, the relative viability came out at 0.713 with IU1-47 + Crizotinib (first compound 0.253 µM); 0.479 with IU1-47 + Crizotinib (first compound 0.8 µM); 0.839 in the test with IU1-47 + Crizotinib (first compound 2.53 µM); 0.518 with IU1-47 + Crizotinib (first compound 8 µM); 1.05 with FG-4592 + Bortezomib (first compound 0.08 µM); 1.07 with FG-4592 + Bortezomib (first compound 0.253 µM). Besides, the relative viability was 0.601 in the test with FG-4592 + Bortezomib (first compound 0.8 µM); 1.15 with FG-4592 + Bortezomib (first compound 2.53 µM); 0.902 with FG-4592 + Bortezomib (first compound 8 µM); 0.594 with FG-4592 + AZD7762 (first compound 0.08 µM); 0.59 with FG-4592 + AZD7762 (first compound 0.253 µM); 0.513 in the test with FG-4592 + AZD7762 (first compound 0.8 µM). Moreover, the relative viability with FG-4592 + AZD7762 (first compound 2.53 µM) amounted to 0.523; in the test with FG-4592 + AZD7762 (first compound 8 µM) it was 0.717.
